Data as given in article PMC6428421 (Nature cell biology, 2019).

Target: IRAK1 (Homo sapiens, UniProt P51617)
Test: KINOMEScan competition kinase-binding assay

Sequence of IRAK1 (P51617 whole entry): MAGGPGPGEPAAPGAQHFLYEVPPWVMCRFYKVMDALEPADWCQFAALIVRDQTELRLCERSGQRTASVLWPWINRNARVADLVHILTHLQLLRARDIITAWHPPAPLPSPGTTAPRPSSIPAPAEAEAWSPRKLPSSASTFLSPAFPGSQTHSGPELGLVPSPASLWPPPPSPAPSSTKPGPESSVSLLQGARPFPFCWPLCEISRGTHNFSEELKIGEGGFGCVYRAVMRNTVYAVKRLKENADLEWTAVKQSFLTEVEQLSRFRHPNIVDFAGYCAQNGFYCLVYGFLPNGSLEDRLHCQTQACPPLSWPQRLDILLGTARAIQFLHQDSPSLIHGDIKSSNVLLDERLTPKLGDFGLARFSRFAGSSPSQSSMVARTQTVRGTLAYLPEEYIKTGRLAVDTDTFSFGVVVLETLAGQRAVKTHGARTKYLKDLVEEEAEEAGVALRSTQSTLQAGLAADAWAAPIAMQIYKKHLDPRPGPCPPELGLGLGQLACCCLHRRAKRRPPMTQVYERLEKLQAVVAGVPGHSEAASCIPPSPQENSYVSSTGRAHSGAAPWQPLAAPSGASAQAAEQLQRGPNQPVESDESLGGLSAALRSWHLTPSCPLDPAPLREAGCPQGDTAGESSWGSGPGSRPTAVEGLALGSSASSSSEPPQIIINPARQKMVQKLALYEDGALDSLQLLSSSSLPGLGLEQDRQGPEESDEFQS

Kd: 5.8 µM
Compound: COC(=O)Nc1nc2ccc([S+]([O-])c3ccccc3)cc2[nH]1 (stereo not shown) [OXF, oxfendazole]
